In paper PMC4176481, “Influence of D-glutamine and D-glutamic acid sequences in optical peptide probes targeted against the cholecystokinin-2/gastrin-receptor on binding affinity, specificity and pharmacokinetic properties” (EJNMMI Research, 2013):
Starred links: 1 amine or outer side, 2 acyl side, 3 side chain; linkers in the order of their positions; H or OH if unused. Positions of bridges follow the written chain, without caps; N, C: chain ends. Non-standard residues stand in square brackets, D forms with d. Residues, ends and D or L forms follow the SMILES beside them. Chains are numbered I, II in the order given. *: point of attachment. X1 = CC(C)(C)c1cc(C=CC=CC=C2N(CCCS(=O)(=O)O)c3ccc(S(=O)(=O)O)cc3C2(C)CCCC(=O)*)c2cc3c(cc2[o+]1)N(CCCS(=O)(=O)O)C(C)(C)C=C3CS(=O)(=O)[O-]; Nle = CCCC[C@H](N)C(=O)O; X2 = O=C(C[*:1])[*:2]

Columns and labels:
[1] = biological target: T1, CCK2R (A431/CCK2R cells) (Homo sapiens, UniProt P32239); design: method as in PMID 23591397; conditions: earlier probe with a spacer of six uncharged D-glutamines; read-out: dissociation constant Kd; cited from earlier work
T1 construct: expressed in transfected cells; host or cells: A431 human epidermoid carcinoma cells, stably transfected (gift from Dr. Luigi Aloj)
T1 sequence (P32239 1-447): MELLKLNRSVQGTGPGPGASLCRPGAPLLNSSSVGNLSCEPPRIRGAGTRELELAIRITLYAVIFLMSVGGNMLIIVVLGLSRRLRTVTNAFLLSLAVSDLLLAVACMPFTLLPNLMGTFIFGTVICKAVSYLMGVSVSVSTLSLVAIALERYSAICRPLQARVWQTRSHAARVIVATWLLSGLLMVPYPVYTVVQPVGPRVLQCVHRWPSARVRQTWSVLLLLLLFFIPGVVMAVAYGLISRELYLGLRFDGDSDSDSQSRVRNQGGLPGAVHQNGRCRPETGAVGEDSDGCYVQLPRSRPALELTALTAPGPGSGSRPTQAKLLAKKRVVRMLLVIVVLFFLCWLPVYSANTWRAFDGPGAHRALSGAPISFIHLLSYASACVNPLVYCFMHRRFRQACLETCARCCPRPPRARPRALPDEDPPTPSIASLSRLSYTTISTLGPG

[2] = system: A431/CCK2R cells; assay: Target binding and internalization in vitro, fluorescence microscopy; type: cell-based, human; conditions: 0.5 μM, 30 min
Experimental: (§1) Binding of the optical probes QE and bivQ to CCK2R-expressing (A431/CCK2R) and CCK2R-non-expressing (A431/WT) cells was investigated after incubation with 0.5 μM of each probe in culture medium for 30 min at 4°C to observe active surface receptor binding and at 37°C to check for internalization behaviour, which is mandatory for in vivo signal amplification. Incubation with 0.5 μM of the fluorochrome DY-754 should determine the role of the interaction of the peptide with the CCK2R for probe uptake. Probe incubation was followed by cell membrane staining with wheat germ agglutinin-Alexa Fluor®-555 (WGA-555, Invitrogen, Carlsbad, CA, USA), fixation in 4% (v/v) paraformaldehyde on ice and mounting in PermaFluor® Mounting medium (Thermo Fisher, Waltham, MA, USA), containing 0.2 μg/mL Hoechst 33258 (Applichem, Darmstadt, Germany) to stain cell nuclei. Fluorescence microscopy was carried out with the digital microscope EVOSfl (AMG, Bothell, WA, USA) equipped with three filter cubes for visualization of Hoechst (excitation 335 to 379 nm, emission 417 to 477 nm), WGA-555 (excitation 511 to 551 nm, emission 573 to 613 nm) and DY-754 (excitation 690 to 730 nm, emission 752 to 798 nm).

[3] = system: A431/WT cells; assay: Target binding in vitro, fluorescence microscopy, CCK2R-non-expressing cells; type: cell-based, human; conditions: 0.5 μM, 30 min
Experimental: as §1

[4] = system: A431/CCK2R tumours; assay: In vivo NIRF imaging of CCK2R-expressing xenografts; design: species or system athymic nude mice
From the text: Female athymic nude mice (Hsd:Athymic Nude-Foxn1^nu nu/nu; Harlan Laboratories, Eystrup, Germany) were housed under standard conditions with water and food ad libitum. Mice were maintained under a low-pheophorbide diet (C 1039; Altromin, Lage, Germany) to reduce tissue autofluorescence. All procedures were approved by the regional animal committee (reg. number 02-007/10) and were in accordance with international guidelines on the ethical use of animals. Animals were anesthetized with 2% isoflurane during all procedures. To implement subcutaneous xenografts, 5 × 10^5 CCK2R transfected (A431/CCK2R) and non-transfected wild-type cells (A431/WT) were dispensed in Matrigel™ (BD Biosciences, Heidelberg, Germany) and injected into the right (A431/CCK2R cells) and left (A431/WT cells) flank of 8- to 12-week-old animals 10 to 15 days before in vivo imaging.
Xenografts were inoculated in athymic nude mice (Hsd:Athymic Nude-Foxn1^nu nu/nu; Harlan Laboratories) 10 to 15 days before imaging by subcutaneous injection of 0.5 million A431/CCK2R […] and A431/WT cells (right flank) dispersed in Matrigel™ (BD Biosciences). For in vivo fluorescence imaging, 108 nmol/kg QE or 54 nmol/kg bivQ probe was injected intravenously (i.v.), according to the results of a dose determination experiment, which was set up to identify the optimal relation between sensitivity and contrast (Additional file 1). […] Another group received 108 nmol/kg of the unconjugated fluorophore DY-754 to determine dye-mediated non-specific tumour uptake, and one group remained untreated to control for probe-unrelated NIR fluorescence in the animals. At defined time points between 0 and 8 h p.i., NIRF fluorescence images (excitation 615 to 665 nm, emission >750 nm) and white light images of the animals were obtained. By means of spectral unmixing, tissue autofluorescence was removed from the images. Subsequently, fluorescence intensities (FI) were analysed over the time in regions of interest (ROIs) that were placed upon the tumours and non-tumour tissue. As a measure of contrast between tumour and non-tumour fluorescence, tumour/background ratios (TBRs) were calculated as a quotient of FItumour/FInon-tumour.

[5] = system: A431/WT tumours; assay: In vivo NIRF imaging of CCK2R-negative xenografts; design: species or system athymic nude mice; conditions: 1 to 8 h p.i.; i.v. 108 nmol/kg QE or 54 nmol/kg bivQ; n = 5
From the text: Female athymic nude mice (Hsd:Athymic Nude-Foxn1^nu nu/nu; Harlan Laboratories, Eystrup, Germany) were housed under standard conditions with water and food ad libitum. Mice were maintained under a low-pheophorbide diet (C 1039; Altromin, Lage, Germany) to reduce tissue autofluorescence. All procedures were approved by the regional animal committee (reg. number 02-007/10) and were in accordance with international guidelines on the ethical use of animals. Animals were anesthetized with 2% isoflurane during all procedures. […]
Xenografts were inoculated in athymic nude mice (Hsd:Athymic Nude-Foxn1^nu nu/nu; Harlan Laboratories) 10 to 15 days before imaging by subcutaneous injection of 0.5 million A431/CCK2R (left flank) and A431/WT cells (right flank) dispersed in Matrigel™ (BD Biosciences). For in vivo fluorescence imaging, 108 nmol/kg QE or 54 nmol/kg bivQ probe was injected intravenously (i.v.), according to the results of a dose determination experiment, which was set up to identify the optimal relation between sensitivity and contrast (Additional file 1). […] Another group received 108 nmol/kg of the unconjugated fluorophore DY-754 to determine dye-mediated non-specific tumour uptake, and one group remained untreated to control for probe-unrelated NIR fluorescence in the animals. […]

[6] = Biodistribution, ex vivo NIRF of organs and xenografts 8 h p.i.; type: in vivo, athymic nude mice
Experimental: We investigated the biodistribution of the optical probes and of the fluorochrome DY-754 to determine the influence of the dye on tumour and organ accumulation. Therefore, 8 h p.i., ex vivo NIRF fluorescence images of the organs and the two xenografts (A431/CCK2R and A431/WT) per mouse were taken in combination with the placement of ROIs on these organs to assess semiquantitative fluorescence intensities.

[7] = system: A431/CCK2R and A431/WT tumours; assay: Ex vivo intratumoural probe distribution in cryosections (Odyssey scanner); design: species or system athymic nude mice; conditions: acetone-fixed 30-μm cryosections of explanted xenografts, three specimens/group
From the text: To determine intratumoural distribution of the peptide probes ex vivo, acetone-fixed 30-μm cryosections of explanted xenografts were scanned mesoscopically in the near-infrared scanner Odyssey® (LI-COR, Bad Homburg, Germany) at 700 nm (autofluorescence) and 800 nm (probe fluorescence).

[8] = Metabolic (protease) stability in mouse liver homogenates; type: in vitro ADME; conditions: mouse liver homogenate, incubation up to 180 min, HPLC with UV/VIS detection at 750 nm, three parallels
Experimental: Supplementary file 2191-219X-3-75-S3.pptx: Additional file 3: Metabolic (protease) stability of QE and bivQ against the degradation by mouse liver homogenates. The HPLC peak of non-degraded QE at 9.7 min elution time (a-I) decreased after 180 min of probe incubation in liver homogenate, whereas a second peak, representing degradation products, appeared at 7.2 min of elution (a-II). Degradation curves of (b) QE and (c) bivQ. […] Peaks were detected at 750 nm with a UV/VIS detector. Data represent three parallels. Click here for file
Supplementary file 2191-219X-3-75-S4.pptx: Additional file 4: Metabolic stability of the optical CCK2R targeted minigastrin dQ-MG-754 [[20]]. Degradation of dQ-MG-754 for comparison with QE and bivQ. […] Probe signal was detected at 750 nm with a UV/VIS detector. Data represent three parallels. Click here for file

Compound | Kd [1] [nM] | probe localisation in A431/CCK2R cells at 4°C ([2]; 4°C) | binding and internalization in A431/CCK2R cells at 37°C ([2]; 37°C, n = 3) | binding to A431/WT cells (no CCK2R expression) [3] | TBR, A431/CCK2R xenografts, under competition ([4]; 8 h p.i., co-injection of 10-fold molar excess of non-fluorescent minigastrin, mean ± SD, n = 5) | tumour/background ratio (TBR), A431/CCK2R xenografts ([4]; 8 h p.i., i.v. 108 nmol/kg QE or 54 nmol/kg bivQ, mean ± SD, n = 5) | TBR, CCK2R-expressing xenografts (summary bound) ([4]; high-contrast imaging, discussion summary) | TBR, A431/WT tumours [5] | fluorescence accumulation in stomach, small intestine and colon ([6]; n = 5) | uptake into A431/WT tumours (biodistribution) ([6]; n = 5, comparably high for DY-754 (p > 0.05)) | intratumoural fluorescence at 800 nm in tumour sections [7] | metabolic stability against degradation by liver proteases [8]
dQ-MG-754: previously published optical minigastrin probe with a spacer of six uncharged D-glutamines and DY-754 (ref 20) (QQQQQQAYGWMDF; not fully specified; Synthetic minigastrin analogue; Residues 1-6 are D-Gln (the text states a spacer of six D-glutamines)) | 1.8 ± 0.6 | – | – | – | – | – | – | – | – | – | – | –
CCCC[C@H](NC(=O)[C@H](Cc1c[nH]c2ccccc12)NC(=O)CNC(=O)[C@H](Cc1ccc(O)cc1)NC(=O)[C@H](C)NC(=O)[C@@H](CCC(N)=O)NC(=O)[C@@H](CCC(N)=O)NC(=O)[C@@H](CCC(N)=O)NC(=O)CSC[C@H](NC(=O)CCCC1(C)C(=CC=CC=Cc2cc(C(C)(C)C)[o+]c3cc4c(cc23)C(CS(=O)(=O)[O-])=CC(C)(C)N4CCCS(=O)(=O)O)N(CCCS(=O)(=O)O)c2ccc(S(=O)(=O)O)cc21)C(=O)N[C@H](CCC(N)=O)C(=O)N[C@H](CCC(N)=O)C(=O)N[C@H](CCC(N)=O)C(=O)N[C@@H](C)C(=O)N[C@@H](Cc1ccc(O)cc1)C(=O)NCC(=O)N[C@@H](Cc1c[nH]c2ccccc12)C(=O)N[C@@H](CCCC)C(=O)N[C@@H](CC(=O)O)C(=O)N[C@@H](Cc1ccccc1)C(N)=O)C(=O)N[C@@H](CC(=O)O)C(=O)N[C@@H](Cc1ccccc1)C(N)=O (stereo partly drawn) [bivQ] (I: X1-C[dQ][dQ][dQ]AYGW[Nle]DF-NH2 / II: [dQ][dQ][dQ]AYGW[Nle]DF-NH2; linker I:1-II:N via X2) | – | restricted to the cell membrane | binding and internalization | no binding | 4.0 ± 1.2 | 6.3 ± 1.4 | > 6 | < 2 | no fluorescence accumulation | weak uptake | only in the outer A431/CCK2R tumour regions | only a limited metabolic stability
